Laboratory results taken from patent US10047105B2, “Gyrase inhibitors” (Merck Sharp & Dohme Corp., priority 2009, dated 2018).
Values after ≈ are worked out from the molar mass of the structure shown.

How the values were obtained:
Assay type in all cases: cell-based
[1] = test system: S. aureus ATCC 13709; assay: MIC, antibacterial potency, S. aureus; settings: S. aureus (SA); in µg/mL
[2] = test system: S. pneumoniae ATCC 51916; assay: MIC, S. pneumoniae; settings: S. pneumoniae (Spn52); in µg/mL
[3] = test system: E. coli 8 ATCC 25922; assay: MIC, E. coli 8 (wt); settings: E. coli 8 (EC8)

| MIC, SA [1] | MIC Spn52 [2] | MIC EC8 [3] [µg/mL] | Compound |
| --- | --- | --- | --- |
| <=0.5 | <=0.5 | > 64 | CCc1[nH]c2nc(Sc3ccc4nccnc4c3)nc(N3C[C@@H]4C(N)[C@@H]4C3)c2c1Cl (stereo partly drawn) [701,006] |
| <=0.5 | 2 | > 64 | CCc1[nH]c2nc(Oc3ccc4nccnc4c3)nc(Oc3ccc4ncn(C)c4c3)c2c1Cl [701,007] |
| <=0.5 | 1 | > 16 | CCc1[nH]c2nc(Sc3ccc4cc(C#N)c[n+]([O-])c4c3)nc(N3CC4C(N)C4C3)c2c1Cl (stereo not drawn) [701,010] |
| 1 | 2 | > 64 | CCc1[nH]c2nc(Oc3ccc4nccnc4c3)nc(N3CC4C(C3)C4NC(C)=O)c2c1Cl (stereo not drawn) [701,012] |
| 1 | 2 | 16 (≈ 31.5 µM) | CCc1[nH]c2nc(Sc3ccc4nc(N5CC(N)C5)cnc4c3)nc(N3C[C@@H]4C(N)[C@@H]4C3)c2c1Cl (stereo partly drawn) [701,013] |
| 4 | 8 | 32 (≈ 64.5 µM) | CCc1[nH]c2nc(Sc3ccc4nc(N5CC(N)C5)cnc4c3)nc(N3CC[C@@H](N)C3)c2c1Cl [701,014] |
| <=0.5 | 2 | > 64 | CCc1[nH]c2nc(Sc3cc(C(=O)NOC)c4ncccc4c3)nc(N3CC[C@@H](N)C3)c2c1Cl [701,015] |
| >64 | >64 | > 64 | CCc1[nH]c2nc(Sc3cnc4cccnc4c3)nc(N3C[C@H](N)[C@H](C(=O)N4CC(N)C4)C3)c2c1Cl [701,016] |
| 2 | 1 | > 64 | CCc1[nH]c2nc(Sc3cnc4cccnc4c3)nc(N3C[C@H](N)[C@H](C(=O)NCC(C)C)C3)c2c1Cl [701,017] |
| >64 | 16 | > 64 | CCc1[nH]c2nc(Sc3cnc4cccnc4c3)nc(N3C[C@H](N)[C@H](C(=O)NCC(C)O)C3)c2c1Cl (stereo partly drawn) [701,018] |
| >32 | >32 | > 32 | CCc1[nH]c2nc(Sc3cnc4cccnc4c3)nc(N3C[C@H](N)[C@H](C(=O)NCC(O)CO)C3)c2c1Cl (stereo partly drawn) [701,019] |
| 4 | 2 | > 64 | CCc1[nH]c2nc(Sc3cnc4cccnc4c3)nc(N3C[C@H](N)[C@H](C(=O)NCc4cccnc4)C3)c2c1Cl [701,020] |
| 4 | 4 | > 64 | CCc1[nH]c2nc(Sc3cnc4cccnc4c3)nc(N3C[C@H](N)[C@H](C(=O)N[C@@H](CO)c4ccccc4)C3)c2c1Cl [701,021] |
| 4 | 2 | > 64 | CCc1[nH]c2nc(Sc3cnc4cccnc4c3)nc(N3C[C@@H](N)[C@@H](C(=O)N[C@@H](CO)c4ccccc4)C3)c2c1Cl [701,022] |
| >64 | >64 | > 64 | CCc1[nH]c2nc(Sc3cnc4cccnc4c3)nc(N3C[C@H](N)[C@H](C(=O)N4CC[C@@H](N)C4)C3)c2c1Cl [701,023] |
| 2 | 2 | > 64 | CCc1[nH]c2nc(Sc3cnc4cccnc4c3)nc(N3C[C@H](N)[C@H](C(=O)Nc4nccs4)C3)c2c1Cl [701,024] |
| <=0.5 | 2 | 16 (≈ 35.2 µM) | CCc1[nH]c2nc(Sc3cnc4ccc[n+]([O-])c4c3)nc(N3CC4CNC4C3)c2c1Cl (stereo not drawn) [701,025] |
| <=0.5 | 1 | 8 (≈ 17.1 µM) | CCc1[nH]c2nc(Sc3cnc4ccc[n+]([O-])c4c3)nc(N3CC4CCNC4C3)c2c1Cl (stereo not drawn) [701,026] |
| <=0.5 | 1 | > 64 | CCc1[nH]c2nc(Sc3cnc4ccc[n+]([O-])c4c3)nc(N3CC(O)C3)c2c1Cl [701,027] |
| <=0.5 | <=0.5 | > 64 | CCNC(=O)NC1C2CN(c3nc(Sc4cnc5cccnc5c4)nc4[nH]c(CC)c(Cl)c34)CC21 (stereo not drawn) [701,028] |
| 2 | 4 | > 64 | CCc1[nH]c2nc(Oc3ccc4nccnc4c3)nc(N3CCOCC3)c2c1Cl [701,029] |
| <=0.5 | <=0.5 | > 64 | CCc1[nH]c2nc(Oc3cnc4c(c3)ncn4C)nc(Oc3ccc4nccnc4c3)c2c1Br [701,030] |
| <=0.5 | 2 | > 64 | CCc1[nH]c2nc(Oc3cncc(C#N)c3)nc(N3CCOCC3)c2c1Cl [701,031] |
| 8 | 8 | > 64 | CCc1[nH]c2nc(Oc3cnc4c(c3)ncn4C)nc(N3CC[C@@H](NC(C)=O)C3)c2c1Br [701,032] |
| >64 | >64 | > 64 | CCc1[nH]c2nc(Oc3cnc4c(c3)ncn4C)nc(N3CC[C@@H](N)C3)c2c1Cl [701,033] |
| 4 | 4 | > 64 | CCc1[nH]c2nc(Oc3cnc4c(c3)ncn4C)nc(N3CC[C@@H](NC(C)=O)C3)c2c1Cl [701,034] |

| MIC, SA [1] | MIC Spn52 [2] | MIC EC8 [3] [µg/mL] | Compound |
| --- | --- | --- | --- |
| <=0.5 | <=0.5 | > 64 | CCOC(=O)NCC1CCN(c2nc(Sc3cnc4cccnc4c3)nc3[nH]c(CC)c(Cl)c23)C1 (stereo not drawn) [701,035] |
| <=0.5 | 2 | 16 (≈ 37.4 µM) | CCc1[nH]c2nc(Sc3cnc4ccc[n+]([O-])c4c3)nc(N3CC(N)C3)c2c1Cl [701,036] |
| 8 | 16 | > 64 | CCc1[nH]c2nc(Sc3cnc4ccc[n+]([O-])c4c3)nc(N(C)CCNC)c2c1Cl [701,037] |
| 8 | 32 | 16 (≈ 35.2 µM) | CCc1[nH]c2nc(Sc3cnc4ccc[n+]([O-])c4c3)nc(N3CC4(CNC4)C3)c2c1Cl [701,038] |
| 8 | 8 | > 64 | CCc1[nH]c2nc(Sc3ccc4oc(C)nc4c3)nc(N3CC[C@@H](N)C3)c2c1Cl [701,039] |
| <=0.5 | 4 | 32 (≈ 67.9 µM) | CCc1[nH]c2nc(Sc3ccc4c(OC)cc[n+]([O-])c4c3)nc(N3CC[C@@H](N)C3)c2c1Cl [701,040] |
| 8 | 16 | > 32 | CCc1[nH]c2nc(Oc3cncc(OC)c3)nc(N3CC4C(N)C4C3)c2c1Cl (stereo not drawn) [701,041] |
| <=0.5 | 1 | > 64 | CCc1[nH]c2nc(Sc3cnc4cccnc4c3)nc(N3CCC(CNS(C)(=O)=O)C3)c2c1Cl (stereo not drawn) [701,042] |
| 1 | >64 | > 64 | CCOC(=O)C(=O)NCC1CCN(c2nc(Sc3cnc4cccnc4c3)nc3[nH]c(CC)c(Cl)c23)C1 (stereo not drawn) [701,043] |
| <=0.5 | 1 | > 64 | CCc1[nH]c2nc(Sc3cnc4cccnc4c3)nc(N3CCC(CNC(C)=O)C3)c2c1Cl (stereo not drawn) [701,044] |
| <=0.5 | 1 | > 64 | CCc1[nH]c2nc(Sc3cnc4cccnc4c3)nc(N3CCC(CNS(=O)(=O)c4ccccc4)C3)c2c1Cl (stereo not drawn) [701,045] |
| 2 | 4 | > 64 | CCc1[nH]c2nc(Sc3cnc4cccnc4c3)nc(N3CCC(CNS(=O)(=O)c4cnoc4C)C3)c2c1Cl (stereo not drawn) [701,046] |
| <=0.5 | <=0.5 | > 64 | CCc1[nH]c2nc(Sc3cnc4cccnc4c3)nc(N3CCC(CNC(=O)c4nccs4)C3)c2c1Cl (stereo not drawn) [701,047] |
| 16 | >64 | > 64 | CCc1[nH]c2nc(Sc3ccc4cc(C(=O)N5CC(O)C5)c(C)[n+]([O-])c4c3)nc(N3CC[C@@H](N)C3)c2c1Cl [701,048] |
| <=0.5 | <=0.5 | 8 (≈ 18.8 µM) | CCc1[nH]c2nc(Sc3ccc4cncnc4c3)nc(N3CC[C@@H](N)C3)c2c1Cl [701,049] |
| <=0.5 | <=0.5 | 32 (≈ 77.7 µM) | CCc1[nH]c2nc(Sc3ccc4cncnc4c3)nc(N3CC(N)C3)c2c1Cl [701,050] |
| 2 | 4 | > 32 | CCc1[nH]c2nc(Sc3ccc4c[n+]([O-])cnc4c3)nc(N3CC[C@@H](N)C3)c2c1Cl [701,051] |
| 4 | 8 | > 16 | CCc1[nH]c2nc(Oc3cncnc3)nc(N3CC4C(C3)C4NC(C)=O)c2c1Br (stereo not drawn) [701,052] |
| <=0.5 | 1 | > 64 | CCc1[nH]c2nc(Oc3ccc4cccnc4c3)nc(Oc3ccc4cccnc4c3)c2c1Br [701,054] |
| >64 | >64 | > 64 | CCc1[nH]c2nc(Oc3ccc4cccnc4c3)nc(N3CC4C(N)C4C3)c2c1Cl (stereo not drawn) [701,055] |
| 4 | 8 | > 64 | CCc1[nH]c2nc(Oc3ccc4ccc[n+]([O-])c4c3)nc(Oc3ccc4ccc[n+]([O-])c4c3)c2c1Br [701,056] |
| 8 | 32 | > 64 | CCc1[nH]c2nc(Oc3ccc4c(c3)ncc[n+]4[O-])nc(Oc3ccc4c(c3)ncc[n+]4[O-])c2c1Cl [701,057] |
| <=0.5 | <=0.5 | > 32 | CCc1[nH]c2nc(Oc3ccc4c(c3)ncc[n+]4[O-])nc(Oc3ccc4c(c3)ncc[n+]4[O-])c2c1Br [701,058] |
| <=0.5 | <=0.5 | > 64 | CCc1[nH]c2nc(Oc3ccc4c(c3)ncc[n+]4[O-])nc(Oc3ccc4nccnc4c3)c2c1Br [701,059] |
| <=0.5 | <=0.5 | > 64 | CCc1[nH]c2nc(Oc3ccc4nccnc4c3)nc(Oc3ccc4c(c3)ncc[n+]4[O-])c2c1Br [701,060] |
| <=0.5 | <=0.5 | > 32 | CCc1[nH]c2nc(Oc3ccc4c(c3)ncc[n+]4[O-])nc(Oc3ccc4nccnc4c3)c2c1Cl [701,061] |
